Results published in US20250049926A1, “PHARMACEUTICAL COMPOSITIONS COMPRISING MODIFIED BETACYCLODEXTRINS” (priority 2021, published 2025).

Assay: Solubility measurement of saturated solutions by HPLC at room temperature (0 h and 24 h)
Type: physicochemical
Conditions: for solubility at 0 h / solubility at 24 h: thermodynamic from solid
Procedure: The vial contents are prepared starting with 2.5 mg of the compound of formula (I). The primary excipient is added followed by any further excipient and then the buffered water to a total volume of 500 μL. All components are mixed in a vortex mixer for ca. 5 minutes. If everything is dissolved an additional 2.5 mg of the compound of formula (I) is added and vortexed again for ca. 5 minutes. This is repeated until a saturated solution (suspension) is obtained.
The solubility in vial 1 is measured immediately as described below.
To measure solubility 400 μl of the suspension are taken and placed in a centrifugation device above a 0.2 μm filter. Centrifugation is performed at 14,000 rpm for 10 minutes and if necessary repeated for additional 10 minutes. The filter is removed from the vial and 100 μL is taken and diluted with 400 μL high-performance liquid chromatography (HPLC) diluent solution (see below) or diluted with 900 μL HPLC diluent solution in the event 5 mg or more of the compound of formula (I) was used. The pH of the solution is measured. A further 100 μL of the vial solution is taken and diluted with 400 μL of HPLC diluent solution or diluted with 900 μL HPLC diluent solution in the event 5 mg or more of the compound of formula (I) was used. The assay of the solution versus control stock solution is measured by HPLC and the solubility is calculated as described below. The HPLC diluent solution is 0.1% trifluoroacetic acid (TFA) in acetonitrile (ACN) and water (1:1 v/v).
All solubility tests are performed at room temperature.
The HPLC method for assessing solubility is performed as follows:
The solubility of the compound of formula (I) is calculated according to the following formula:
[formula] • Solubility=solubility of compound of formula (I) (mg/mL) • A=peak area of the compound of the sample tested • a=value of constant “a” in Linear regression equation y=ax+b • b=value of constant “b” in Linear regression equation y=ax+b • n=dilution time • Formulations for stability assessment are prepared as follows: […]

[1] = buffered water with excipients, pH 2, aqueous with cosolvent or surfactant or cyclodextrin, CBS 30 mM pH 2.0, NaCl 3 mg/mL, SBE-beta-CD 40 mg/mL, pH exp 2.2

- effect of additional excipient on solubility with SBE-beta-CD (Kollidon 12 PF, Kolliphor P188, soybean lecithin): very small impact on solubility
- effect of additional excipient on solubility with SBE-beta-CD (PEG 400, glycerol, propylene glycol and PEG 4000): do not increase the solubility
- effect of additional excipient on solubility with SBE-beta-CD (addition of Tween 80): slightly improves solubility
- effect of additional excipient on solubility with SBE-beta-CD (addition of carboxymethylcellulose sodium, solution sticky at 24 hours): decreases solubility
- solubility at 0 h (buffered water with excipient (saturated solution), pH 4, aqueous buffer, CBS 30 mM pH 4.0, Ethanol 20 mg/mL, pH exp 4.1): 160 µg/mL
- solubility at 24 h (buffered water with excipient (saturated solution), pH 4, aqueous buffer, CBS 30 mM pH 4.0, Ethanol 20 mg/mL, pH exp 4.2): 110 µg/mL
- solubility at 0 h (buffered water with excipient (saturated solution), pH 4, aqueous buffer, CBS 30 mM pH 4.0, PEG 400 20 mg/mL, pH exp 4.1): 220 µg/mL
- solubility at 24 h (buffered water with excipient (saturated solution), pH 4, aqueous buffer, CBS 30 mM pH 4.0, PEG 400 20 mg/mL, pH exp 4.3): 150 µg/mL
- solubility at 0 h (buffered water with excipient (saturated solution), pH 4, aqueous with cosolvent or surfactant or cyclodextrin, CBS 30 mM pH 4.0, NaCl 3 mg/mL, HP-beta-CD 40 mg/mL, pH exp 4.10): 1670 µg/mL
- solubility at 24 h (buffered water with excipient (saturated solution), pH 4, aqueous with cosolvent or surfactant or cyclodextrin, CBS 30 mM pH 4.0, NaCl 3 mg/mL, HP-beta-CD 40 mg/mL, pH exp 4.28): 980 µg/mL
- solubility at 0 h (buffered water with excipient (saturated solution), pH 4, aqueous with cosolvent or surfactant or cyclodextrin, CBS 30 mM pH 4.0, NaCl 3 mg/mL, SBE-beta-CD 10 mg/mL, pH exp 4.1): 890 µg/mL
- solubility at 24 h (buffered water with excipient (saturated solution), pH 4, aqueous with cosolvent or surfactant or cyclodextrin, CBS 30 mM pH 4.0, NaCl 3 mg/mL, SBE-beta-CD 10 mg/mL, pH exp 4.2): 1110 µg/mL
- solubility at 0 h (buffered water with excipient (saturated solution), pH 4, aqueous with cosolvent or surfactant or cyclodextrin, CBS 30 mM pH 4.0, NaCl 3 mg/mL, SBE-beta-CD 25 mg/mL, pH exp 4.1): 1840 µg/mL
- solubility at 24 h (buffered water with excipient (saturated solution), pH 4, aqueous with cosolvent or surfactant or cyclodextrin, CBS 30 mM pH 4.0, NaCl 3 mg/mL, SBE-beta-CD 25 mg/mL, pH exp 4.2): 2540 µg/mL
- solubility at 0 h (buffered water with excipient (saturated solution), pH 4, aqueous with cosolvent or surfactant or cyclodextrin, CBS 30 mM pH 4.0, NaCl 3 mg/mL, SBE-beta-CD 40 mg/mL, pH exp 4.0): 2480 µg/mL
- solubility at 24 h (buffered water with excipient (saturated solution), pH 4, aqueous with cosolvent or surfactant or cyclodextrin, CBS 30 mM pH 4.0, NaCl 3 mg/mL, SBE-beta-CD 40 mg/mL, pH exp 4.2): 3800 µg/mL
- solubility at 0 h (buffered water with excipient (saturated solution), pH 4, aqueous with cosolvent or surfactant or cyclodextrin, CBS 30 mM pH 4.0, Ethanol 50 mg/mL, pH exp 4.2): 190 µg/mL
- solubility at 24 h (buffered water with excipient (saturated solution), pH 4, aqueous with cosolvent or surfactant or cyclodextrin, CBS 30 mM pH 4.0, Ethanol 50 mg/mL, pH exp 4.3): 90 µg/mL
- solubility at 0 h (buffered water with excipient (saturated solution), pH 4, aqueous with cosolvent or surfactant or cyclodextrin, CBS 30 mM pH 4.0, Ethanol 100 mg/mL, pH exp 4.2): 260 µg/mL
- solubility at 24 h (buffered water with excipient (saturated solution), pH 4, aqueous with cosolvent or surfactant or cyclodextrin, CBS 30 mM pH 4.0, Ethanol 100 mg/mL, pH exp 4.4): 140 µg/mL
- solubility at 0 h (buffered water with excipient (saturated solution), pH 4, aqueous with cosolvent or surfactant or cyclodextrin, CBS 30 mM pH 4.0, Glycerol 50 mg/mL, pH exp 4.1): 180 µg/mL
- solubility at 24 h (buffered water with excipient (saturated solution), pH 4, aqueous with cosolvent or surfactant or cyclodextrin, CBS 30 mM pH 4.0, Glycerol 50 mg/mL, pH exp 4.3): 120 µg/mL
- solubility at 0 h (buffered water with excipient (saturated solution), pH 4, aqueous with cosolvent or surfactant or cyclodextrin, CBS 30 mM pH 4.0, Glycerol 100 mg/mL, pH exp 4.1): 210 µg/mL
- solubility at 24 h (buffered water with excipient (saturated solution), pH 4, aqueous with cosolvent or surfactant or cyclodextrin, CBS 30 mM pH 4.0, Glycerol 100 mg/mL, pH exp 4.3): 130 µg/mL
- solubility at 0 h (buffered water with excipient (saturated solution), pH 4, aqueous with cosolvent or surfactant or cyclodextrin, CBS 30 mM pH 4.0, Glycerol 500 mg/mL, pH exp 4.6): 1060 µg/mL
- solubility at 24 h (buffered water with excipient (saturated solution), pH 4, aqueous with cosolvent or surfactant or cyclodextrin, CBS 30 mM pH 4.0, Glycerol 500 mg/mL, pH exp 4.8): 260 µg/mL
- solubility at 0 h (buffered water with excipient (saturated solution), pH 4, aqueous with cosolvent or surfactant or cyclodextrin, CBS 30 mM pH 4.0, PEG 100 mg/mL, pH exp 4.3): 600 µg/mL
- solubility at 24 h (buffered water with excipient (saturated solution), pH 4, aqueous with cosolvent or surfactant or cyclodextrin, CBS 30 mM pH 4.0, PEG 100 mg/mL, pH exp 4.5): 400 µg/mL
- solubility at 0 h (buffered water with excipient (saturated solution), pH 4, aqueous with cosolvent or surfactant or cyclodextrin, CBS 30 mM pH 4.0, PEG 400 50 mg/mL, pH exp 4.1): 340 µg/mL
- solubility at 24 h (buffered water with excipient (saturated solution), pH 4, aqueous with cosolvent or surfactant or cyclodextrin, CBS 30 mM pH 4.0, PEG 400 50 mg/mL, pH exp 4.4): 230 µg/mL
- solubility at 0 h (buffered water with excipient (saturated solution), pH 4, aqueous with cosolvent or surfactant or cyclodextrin, CBS 30 mM pH 4.0, PEG 400 500 mg/mL, pH exp 6.3): 4100 µg/mL
- solubility at 24 h (buffered water with excipient (saturated solution), pH 4, aqueous with cosolvent or surfactant or cyclodextrin, CBS 30 mM pH 4.0, PEG 400 500 mg/mL, pH exp 6.4): ≥ 4550 µg/mL
- solubility at 0 h (buffered water with excipient (saturated solution), pH 4, aqueous with cosolvent or surfactant or cyclodextrin, CBS 30 mM pH 4.0, PG 50 mg/mL, pH exp 4.1): 200 µg/mL
- solubility at 24 h (buffered water with excipient (saturated solution), pH 4, aqueous with cosolvent or surfactant or cyclodextrin, CBS 30 mM pH 4.0, PG 50 mg/mL, pH exp 4.3): 110 µg/mL
- solubility at 0 h (buffered water with excipient (saturated solution), pH 4, aqueous with cosolvent or surfactant or cyclodextrin, CBS 30 mM pH 4.0, PG 100 mg/mL, pH exp 4.1): 280 µg/mL
- solubility at 24 h (buffered water with excipient (saturated solution), pH 4, aqueous with cosolvent or surfactant or cyclodextrin, CBS 30 mM pH 4.0, PG 100 mg/mL, pH exp 4.4): 150 µg/mL
- solubility at 0 h (buffered water with excipient (saturated solution), pH 4, aqueous with cosolvent or surfactant or cyclodextrin, CBS 30 mM pH 4.0, PG 500 mg/mL, pH exp 5.4): 3740 µg/mL
- solubility at 24 h (buffered water with excipient (saturated solution), pH 4, aqueous with cosolvent or surfactant or cyclodextrin, CBS 30 mM pH 4.0, PG 500 mg/mL, pH exp 5.3): 2200 µg/mL
- solubility at 0 h (buffered water with excipient (saturated solution), pH 5, aqueous with cosolvent or surfactant or cyclodextrin, CBS 30 mM pH 5.0, NaCl 3 mg/mL, SBE-beta-CD 40 mg/mL, pH exp 5.0): 2240 µg/mL
- solubility at 24 h (buffered water with excipient (saturated solution), pH 5, aqueous with cosolvent or surfactant or cyclodextrin, CBS 30 mM pH 5.0, NaCl 3 mg/mL, SBE-beta-CD 40 mg/mL, pH exp 5.3): 3520 µg/mL
- solubility at 0 h (buffered water with excipient (saturated solution), pH 5.5, aqueous with cosolvent or surfactant or cyclodextrin, CBS 30 mM pH 5.5, NaCl 3 mg/mL, SBE-beta-CD 40 mg/mL, pH exp 5.5): 1630 µg/mL
- solubility at 0 h [1]: 6590 µg/mL
- solubility at 24 h [1]: 5470 µg/mL
- solubility at 0 h (buffered water with excipients, pH 4, aqueous with cosolvent or surfactant or cyclodextrin, ABS (acetate) 30 mM pH 4.0, NaCl 3 mg/mL, SBE-beta-CD 40 mg/mL, pH exp 4.0): 2880 µg/mL
- solubility at 24 h (buffered water with excipients, pH 4, aqueous with cosolvent or surfactant or cyclodextrin, ABS (acetate) 30 mM pH 4.0, NaCl 3 mg/mL, SBE-beta-CD 40 mg/mL, pH exp 4.6): 3720 µg/mL
- solubility at 0 h (buffered water with excipients, pH 4, aqueous with cosolvent or surfactant or cyclodextrin, ASBS (aspartate) 30 mM pH 4.0, NaCl 3 mg/mL, SBE-beta-CD 40 mg/mL, pH exp 4.0): 2880 µg/mL
- solubility at 24 h (buffered water with excipients, pH 4, aqueous with cosolvent or surfactant or cyclodextrin, ASBS (aspartate) 30 mM pH 4.0, NaCl 3 mg/mL, SBE-beta-CD 40 mg/mL, pH exp 4.6): 3720 µg/mL
- solubility at 0 h (buffered water with excipients, pH 4, aqueous with cosolvent or surfactant or cyclodextrin, CBS 30 mM pH 4.0, NaCl 3 mg/mL, SBE-beta-CD 40 mg/mL + Glycerol 1 mg/mL, pH exp 4.1): 2400 µg/mL
- solubility at 24 h (buffered water with excipients, pH 4, aqueous with cosolvent or surfactant or cyclodextrin, CBS 30 mM pH 4.0, NaCl 3 mg/mL, SBE-beta-CD 40 mg/mL + Glycerol 1 mg/mL, pH exp 4.3): 3720 µg/mL
- solubility at 0 h (buffered water with excipients, pH 4, aqueous with cosolvent or surfactant or cyclodextrin, CBS 30 mM pH 4.0, NaCl 3 mg/mL, SBE-beta-CD 40 mg/mL + Glycerol 5 mg/mL, pH exp 4.2): 2320 µg/mL
- solubility at 24 h (buffered water with excipients, pH 4, aqueous with cosolvent or surfactant or cyclodextrin, CBS 30 mM pH 4.0, NaCl 3 mg/mL, SBE-beta-CD 40 mg/mL + Glycerol 5 mg/mL, pH exp 4.3): 3710 µg/mL
- solubility at 0 h (buffered water with excipients, pH 4, aqueous with cosolvent or surfactant or cyclodextrin, CBS 30 mM pH 4.0, NaCl 3 mg/mL, SBE-beta-CD 40 mg/mL + Glycerol 50 mg/mL, pH exp 4.1): 2330 µg/mL
- solubility at 24 h (buffered water with excipients, pH 4, aqueous with cosolvent or surfactant or cyclodextrin, CBS 30 mM pH 4.0, NaCl 3 mg/mL, SBE-beta-CD 40 mg/mL + Glycerol 50 mg/mL, pH exp 4.2): 3570 µg/mL
- solubility at 0 h (buffered water with excipients, pH 4, aqueous with cosolvent or surfactant or cyclodextrin, CBS 30 mM pH 4.0, NaCl 3 mg/mL, SBE-beta-CD 40 mg/mL + HPMC 5 mg/mL, pH exp 4.1): 2230 µg/mL
- solubility at 24 h (buffered water with excipients, pH 4, aqueous with cosolvent or surfactant or cyclodextrin, CBS 30 mM pH 4.0, NaCl 3 mg/mL, SBE-beta-CD 40 mg/mL + HPMC 5 mg/mL, pH exp 4.3): 3530 µg/mL
- solubility at 0 h (buffered water with excipients, pH 4, aqueous with cosolvent or surfactant or cyclodextrin, CBS 30 mM pH 4.0, NaCl 3 mg/mL, SBE-beta-CD 40 mg/mL + Kollidon 12 P188 5 mg/mL, pH exp 4.1): 2590 µg/mL
Structure (SMILES): COc1cc(N2CCNCC2)ccc1Nc1ncc2c(n1)-n1ccc(C(=O)Nc3c(C)cccc3C)c1CC2 [compound of formula (I)]
